Results taken from the SangsterLogP compilation.

Experiment: method code SF-AS, from PMID: 1608988
Settings: pH 7.3

Compound | logD
COc1ccccc1NC(=O)OCCN1CCOCC1 | 1.2
CCCCCOc1ccccc1NC(=O)OCCN1CCOCC1 | 3.18
CCCOc1cccc(NC(=O)OCCN2CCOCC2)c1 | 2.5
CCCCCCCOc1ccccc1NC(=O)OCCN1CCOCC1 | 3.99
CCCCOc1cccc(NC(=O)OCCN2CCOCC2)c1 | 3.08
CCOc1ccc(NC(=O)OCCN2CCOCC2)cc1 | 1.63
CCOc1ccccc1NC(=O)OCCN1CCOCC1 | 1.76
COc1cccc(NC(=O)OCCN2CCOCC2)c1 | 1.64
CCCCCCCCOc1ccccc1NC(=O)OCCN1CCOCC1 | 4.43
CCCOc1ccccc1NC(=O)OCCN1CCOCC1 | 2.26
CCCCOc1ccccc1NC(=O)OCCN1CCOCC1 | 2.73
CCCCCCOc1ccccc1NC(=O)OCCN1CCOCC1 | 3.68
CCCCCCCCOc1cccc(NC(=O)OCCN2CCOCC2)c1 | 4.42

Next, values leading:

logD | Compound
4.73 | CCCCCCCOc1cccc(NC(=O)OCCN2CCOCC2)c1
4.19 | CCCCCCOc1cccc(NC(=O)OCCN2CCOCC2)c1
3.58 | CCCCCOc1cccc(NC(=O)OCCN2CCOCC2)c1
3.96 | CCCCCCOc1ccc(NC(=O)OCCN2CCOCC2)cc1
3.41 | CCCCCOc1ccc(NC(=O)OCCN2CCOCC2)cc1
2.8 | CCCCOc1ccc(NC(=O)OCCN2CCOCC2)cc1
4.41 | CCCCCCCOc1ccc(NC(=O)OCCN2CCOCC2)cc1
2.24 | CCCOc1ccc(NC(=O)OCCN2CCOCC2)cc1
4.8 | CCCCCCCCOc1ccc(NC(=O)OCCN2CCOCC2)cc1
